According to the NIST ThermoML archive (doi:10.1016/j.jct.2018.11.015):
Numbers after ± are expanded uncertainties.

Conditions: Liquid

Row | Structure (SMILES) | vapor or sublimation pressure (313.15 K, Transpiration method) | vapor or sublimation pressure (333.15 K, Transpiration method) | vapor or sublimation pressure (350.9 K, Closed cell (Static) method) | vapor or sublimation pressure (353.15 K, Transpiration method) | vapor or sublimation pressure (361.52 K, Closed cell (Static) method) | vapor or sublimation pressure (371.6 K, Closed cell (Static) method) | vapor or sublimation pressure (373.15 K, Transpiration method) | vapor or sublimation pressure (381.69 K, Closed cell (Static) method) | vapor or sublimation pressure (391.77 K, Closed cell (Static) method) | vapor or sublimation pressure (393.15 K, Transpiration method) | vapor or sublimation pressure (401.71 K, Closed cell (Static) method) | vapor or sublimation pressure (411.72 K, Closed cell (Static) method) | vapor or sublimation pressure (421.57 K, Closed cell (Static) method) | vapor or sublimation pressure (423.15 K, Transpiration method) | vapor or sublimation pressure (343.15 K, Transpiration method)
1 | COC(=O)c1ccccc1C(=O)OC [dimethyl 1,2-benzenedicarboxylate] | 0.00141 ± 0.00023 kPa | 0.00789 ± 0.00067 kPa | 0.0297 ± 0.0019 kPa | 0.0332 ± 0.0022 kPa | 0.0589 ± 0.0037 kPa | 0.1104 ± 0.0069 kPa | 0.122 ± 0.007 kPa | 0.1986 ± 0.012 kPa | 0.3453 ± 0.021 kPa | 0.391 ± 0.024 kPa | 0.5751 ± 0.035 kPa | 0.9413 ± 0.038 kPa | 1.491 ± 0.06 kPa | 1.668 ± 0.09 kPa | –
2 | CCCCOC(=O)c1ccccc1C(=O)OCc1ccccc1 [benzyl butyl 1,2-benzenedioate] | – | – | – | 5.6e-05 ± 9e-06 kPa | – | – | 0.00039 ± 5e-05 kPa | – | – | 0.0022 ± 0.00031 kPa | – | – | – | 0.0238 ± 0.0034 kPa | 1.4e-05 ± 2e-06 kPa
